Values quoted from earlier work in patent US20210134402A1, “METHODS AND SYSTEMS FOR PREDICTING SUCCESS RATES OF CLINICAL TRIALS” (THE TRUSTEES OF COLUMBIA UNIVERSITY IN THE CITY OF NEW YORK, priority 2018, published 2021).

Settings: trial in follicular lymphoma

In the case of `Nc1ccccc1NC(=O)c1ccc(CNc2nccc(-c3cccnc3)n2)cc1` [mocetinostat], the “side effects observed in the trial” value is given as “anaemia, neutropenia, nausea, and diarrhea” and the trial status is given as “put on hold due to toxicity concerns”.
